Data reported in patent US20200247800A1, “SUBSTITUTED BICYCLIC HETEROCYCLIC COMPOUNDS AS NADPH OXIDASE INHIBITORS” (Glenmark Pharmaceuticals S.A., priority 2017, published 2020).

Target: T1, human NOX4 (Homo sapiens, UniProt Q9NPH5)
T1 construct: expressed in transfected cells; membrane fraction used
T1 sequence (Q9NPH5 1-578): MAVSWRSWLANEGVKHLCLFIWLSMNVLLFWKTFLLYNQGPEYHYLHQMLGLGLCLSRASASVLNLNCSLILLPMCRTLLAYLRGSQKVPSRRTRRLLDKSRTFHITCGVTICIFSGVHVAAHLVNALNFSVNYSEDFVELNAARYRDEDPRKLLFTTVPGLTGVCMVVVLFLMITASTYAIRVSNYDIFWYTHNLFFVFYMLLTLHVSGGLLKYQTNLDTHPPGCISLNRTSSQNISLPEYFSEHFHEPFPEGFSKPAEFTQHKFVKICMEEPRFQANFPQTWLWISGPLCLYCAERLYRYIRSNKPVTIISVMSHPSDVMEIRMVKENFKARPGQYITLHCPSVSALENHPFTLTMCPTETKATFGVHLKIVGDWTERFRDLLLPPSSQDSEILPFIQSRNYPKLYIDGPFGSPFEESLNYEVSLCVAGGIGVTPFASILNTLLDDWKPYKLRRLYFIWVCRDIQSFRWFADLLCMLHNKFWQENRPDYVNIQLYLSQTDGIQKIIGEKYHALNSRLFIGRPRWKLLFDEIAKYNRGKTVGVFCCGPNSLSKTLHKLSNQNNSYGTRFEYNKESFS
T1 sequence (P13498 1-195 partner): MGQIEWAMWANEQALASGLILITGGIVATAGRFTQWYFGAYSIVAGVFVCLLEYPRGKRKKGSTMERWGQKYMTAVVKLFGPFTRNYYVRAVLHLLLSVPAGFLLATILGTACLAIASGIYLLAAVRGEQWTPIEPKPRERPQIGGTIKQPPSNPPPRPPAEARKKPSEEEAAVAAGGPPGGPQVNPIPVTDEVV
Assay: Cell free membrane based in vitro NOX4 assay: H2O2 production by membranes expressing human NOX4, measured with Amplex Red
Type: biochemical
Details: for inhibition at 1 µM: 1.0 μM compound, read-out: Percentage inhibition at 1.0 μM; for inhibition at 10 µM: 10.0 μM compound, read-out: Percentage inhibition at 10.0 μM; for IC50: class symbols
Protocol: The inhibition of NOX4 activity was measured as inhibition of formation of reactive oxygen species (ROS) from oxygen in cell free assays. […] A cell free membrane based in vitro assay was developed by preparing membranes from cells stably overexpressing human NOX4. hNOX4/HEK stable cell line was generated in-house for this purpose. Membranes from stably transfected cells overexpressing human NOX4 were prepared by homogenizing the cells in buffer (20 mM HEPES, 1 mM EGTA, 0.5 mM DTT, 0.5% protease inhibitor cocktail, 1 mM PMSF, pH 7.6), followed by centrifugation at 160000 g for 30 min. Membrane fraction (pellet) was resuspended in storage buffer (homogenization buffer with 10% glycerol and 100 mM NaCl) and stored at −80° C. Protein concentration was determined by Bradford reagent. H202 production by membranes expressing human NOX4 was measured using Amplex Red (Invitrogen) by following a slightly modified version of the manufacturer's instruction manual. Briefly, membranes were incubated in assay buffer (25 mM HEPES, 0.12 M NaCl, 3 mM KCl, 1 mM MgCl2, pH 7.4) with Horse Radish Peroxidase (HRP) and Amplex Red. Reaction was started by addition of […] to the membrane mix. Antagonism of NOX4 inhibitors was measured by incubating the membrane with increasing concentrations of the inhibitors for 20 min on a plate shaker prior to addition of NADPH. H2O2 levels were measured for 10 min in a BMG Fluostar microplate reader with excitation and emission wavelengths of 544 nm and 590 nm respectively. Concentration response curves were plotted as a % of maximal response obtained in the absence of the inhibitor. IC50 value was calculated from concentration response curve by nonlinear regression analysis using GraphPad PRISM software.

Row | SMILES | inhibition at 1 µM | inhibition at 10 µM | IC50
1 | COc1ccc(-c2[nH]c3c(c(C)nn3C)c(=O)c2O)c(F)c1 [Example 19, 6-(2-Fluoro-4-methoxyphenyl)-5-hydroxy-1,3-dimethyl-1,7-dihydro-4H-pyrazolo[3,4-b]pyridin-4-one] | 95.3% | 75.2% | 50 to 100 nM
2 | Cc1nn(C)c2[nH]c(-c3ccc(C(F)(F)F)cc3F)c(O)c(=O)c12 [Example 21, 6-[2-Fluoro-4-(trifluoromethyl)phenyl]-5-hydroxy-1,3-dimethyl-1,7-dihydro-4H-pyrazolo[3,4-b]pyridin-4-one] | 100% | 100% | > 150 nM
3 | Cc1nn(C)c2[nH]c(-c3ccc(C(F)(F)F)c(F)c3)c(O)c(=O)c12 [Example 22, 6-[3-Fluoro-4-(trifluoromethyl)phenyl]-5-hydroxy-1,3-dimethyl-1,7-dihydro-4H-pyrazolo[3,4-b]pyridin-4-one] | 100% | 80.9% | > 150 nM
4 | Cc1nn(C)c2[nH]c(-c3ccc(Cl)cc3F)c(O)c(=O)c12 [Example 25, 6-(4-Chloro-2-fluorophenyl)-5-hydroxy-1,3-dimethyl-1,7-dihydro-4H-pyrazolo[3,4-b]pyridin-4-one] | 90.7% | 78.3% | –
5 | Cc1nn(CC(F)(F)F)c2[nH]c(-c3ccccc3Cl)c(O)c(=O)c12 [Example 27, 6-(2-Chlorophenyl)-5-hydroxy-3-methyl-1-(2,2,2-trifluoroethyl)-1,7-dihydro-4H-pyrazolo[3,4-b]pyridin-4-one] | 98.2% | 100% | 100 to 150 nM
6 | Cc1nn(-c2ccccn2)c2[nH]c(-c3ccccc3Cl)c(O)c(=O)c12 [Example 30, 6-(2-Chlorophenyl)-5-hydroxy-3-methyl-1-(pyridin-2-yl)-1,7-dihydro-4H-pyrazolo[3,4-b]pyridin-4-one] | 64.1% | 77.3% | > 150 nM
7 | Cc1nn(-c2ccc(F)c(F)c2)c2[nH]c(-c3ccccc3Cl)c(O)c(=O)c12 [Example 31, 6-(2-Chlorophenyl)-1-(3,4-difluorophenyl)-5-hydroxy-3-methyl-1,7-dihydro-4H-pyrazolo[3,4-b]pyridin-4-one] | 100% | 100% | < 50 nM
8 | Cc1nn(-c2ccc(F)cc2)c2[nH]c(-c3c(F)cccc3F)c(O)c(=O)c12 [Example 32, 6-(2,6-Difluorophenyl)-1-(4-fluorophenyl)-5-hydroxy-3-methyl-1,7-dihydro-4H-pyrazolo[3,4-b]pyridin-4-one] | 100% | 100% | < 50 nM
9 | Cc1nn(-c2ccc(F)cc2)c2[nH]c(-c3ccccc3Cl)c(O)c(=O)c12 [Example 33, 6-(2-Chlorophenyl)-1-(4-fluorophenyl)-5-hydroxy-3-methyl-1,7-dihydro-4H-pyrazolo[3,4-b]pyridin-4-one] | 100% | 100% | < 50 nM
10 | Cc1nn(-c2ccccn2)c2[nH]c(-c3c(F)cccc3F)c(O)c(=O)c12 [Example 36, 6-(2,6-Difluorophenyl)-5-hydroxy-3-methyl-1-(pyridin-2-yl)-1,7-dihydro-4H-pyrazolo[3,4-b]pyridin-4-one] | 84.2% | 100% | > 150 nM
11 | Cc1nn(-c2ccc(F)c(F)c2)c2[nH]c(-c3c(F)cccc3F)c(O)c(=O)c12 [Example 37, 6-(2,6-Difluorophenyl)-1-(3,4-difluorophenyl)-5-hydroxy-3-methyl-1,7-dihydro-4H-pyrazolo[3,4-b]pyridin-4-one] | 100% | 100% | 50 to 100 nM

Next, values leading:

Row | inhibition at 1 µM | inhibition at 10 µM | IC50 | SMILES
12 | 100% | 82.5% | 50 to 100 nM | Cc1nn(C)c2[nH]c(-c3ccc(F)cc3F)c(O)c(=O)c12 [Example 14, 6-(2,4-Difluorophenyl)-5-hydroxy-1,3-dimethyl-1,7-dihydro-4H-pyrazolo[3,4-b]pyridin-4-one]
13 | 50.1% | – | – | Cc1ccc(-c2[nH]c3c(c(C)nn3C)c(=O)c2O)cc1C [Example 15, 6-(3,4-Dimethylphenyl)-5-hydroxy-1,3-dimethyl-1,7-dihydro-4H-pyrazolo[3,4-b]pyridin-4-one]
14 | 99.7% | – | > 150 nM | Cc1nn(C)c2[nH]c(-c3ccc(OC(F)(F)F)c(F)c3)c(O)c(=O)c12 [Example 16, 6-[3-Fluoro-4-(trifluoromethoxy)phenyl]-5-hydroxy-1,3-dimethyl-1,7-dihydro-4H-pyrazolo[3,4-b]pyridin-4-one]
15 | 63.9% | – | – | Cc1nn(C)c2[nH]c(-c3ccc(F)c(F)c3)c(O)c(=O)c12 [Example 17, 6-(3,4-Difluorophenyl)-5-hydroxy-1,3-dimethyl-1,7-dihydro-4H-pyrazolo[3,4-b]pyridin-4-one]
16 | 78.6% | 78.4% | 100 to 150 nM | COc1ccc(-c2[nH]c3c(c(C)nn3C)c(=O)c2O)c(Cl)c1 [Example 18, 6-(2-Chloro-4-methoxyphenyl)-5-hydroxy-1,3-dimethyl-1,7-dihydro-4H-pyrazolo[3,4-b]pyridin-4-one]
17 | 95.9% | 96.1% | < 50 nM | Cc1nn(C)c2[nH]c(-c3cc(Cl)ccc3Cl)c(O)c(=O)c12 [Example 20, 6-(2,5-Dichlorophenyl)-5-hydroxy-1,3-dimethyl-1,7-dihydro-4H-pyrazolo[3,4-b]pyridin-4-one]
18 | 100% | 99.3% | 50 to 100 nM | COc1ccc(Cl)c(-c2[nH]c3c(c(C)nn3C)c(=O)c2O)c1 [Example 23, 6-(2-Chloro-5-methoxyphenyl)-5-hydroxy-1,3-dimethyl-1,7-dihydro-4H-pyrazolo[3,4-b]pyridin-4-one]
19 | 88.9% | – | > 150 nM | Cc1nn(C)c2[nH]c(-c3ccc(Cl)c(C(F)(F)F)c3)c(O)c(=O)c12 [Example 24, 6-[3-Chloro-3-(trifluoromethyl)phenyl]-5-hydroxy-1,3-dimethyl-1,7-dihydro-4H-pyrazolo[3,4-b]pyridin-4-one]
20 | 89.7% | 64.5% | 50 to 100 nM | CCn1nc(C)c2c(=O)c(O)c(-c3ccccc3Cl)[nH]c21 [Example 26, 6-(2-Chlorophenyl)-1-ethyl-5-hydroxy-3-methyl-1,7-dihydro-4H-pyrazolo[3,4-b]pyridin-4-one]
21 | 82.1% | 58.9% | 100 to 150 nM | Cc1nn(C(C)C)c2[nH]c(-c3ccccc3Cl)c(O)c(=O)c12 [Example 28, 6-(2-Chlorophenyl)-5-hydroxy-3-methyl-1-(propan-2-yl)-1,7-dihydro-4H-pyrazolo[3,4-b]pyridin-4-one]
22 | 89.4% | 95.6% | 100 to 150 nM | COc1ccc(-n2nc(C)c3c(=O)c(O)c(-c4c(F)cccc4F)[nH]c32)cc1 [Example 29, 6-(2,6-Difluorophenyl)-5-hydroxy-1-(4-methoxyphenyl)-3-methyl-1,7-dihydro-4H-pyrazolo[3,4-b]pyridin-4-one]
23 | 100% | 100% | < 50 nM | Cc1nn(-c2cccc(F)c2)c2[nH]c(-c3ccccc3Cl)c(O)c(=O)c12 [Example 34, 6-(2-Chlorophenyl)-1-(3-fluorophenyl)-5-hydroxy-3-methyl-1,7-dihydro-4H-pyrazolo[3,4-b]pyridin-4-one]
24 | 100% | 100% | < 50 nM | Cc1nn(-c2cccc(F)c2)c2[nH]c(-c3c(F)cccc3F)c(O)c(=O)c12 [Example 35, 6-(2,6-Difluorophenyl)-1-(3-fluorophenyl)-5-hydroxy-3-methyl-1,7-dihydro-4H-pyrazolo[3,4-b]pyridin-4-one]
